Laboratory results taken from ChEMBL document CHEMBL3046916, “ROLE OF INTERMEDIARY BIOMARKERS IN DETERMINING THE ANTICANCER EFFICACY OF MARINE COMPOUNDS” (2004).
Calls of active or inactive are those of the source. The rule behind the calls is not given here.

Assays:
Type in all cases: functional
MCF7 [1] = experiment: Inhibition of residual DNA repair ability in Homo sapiens (human) MCF7 cells assessed as plaque forming unit at 50 uM followed by irradiated with 50 Jm'-2 of UV after 24 hr by host cell reactivation assay relative to control
MCF7 [2] = experiment: Inhibition of residual DNA repair ability in Homo sapiens (human) MCF7 cells assessed as plaque forming unit at 50 uM followed by irradiated with 100 Jm'-2 of UV after 24 hr by host cell reactivation assay relative to control
MCF7 [3] = experiment: Decrease of p16 protein expression in Homo sapiens (human) MCF7 cells at 50 uM followed by irradiated with UV after 4 hr by Western blot analysis relative to control; design: scale not given: the % may be the effect or the level left
MCF7 [4] = experiment: Increase of benzo[alpha]pyrene-DNA adduct formation in Homo sapiens (human) MCF7 cells at 50 uM treated for 24 hr before benzo[alpha]pyrene addition measured after 24 hr by 32P-postlabeling technique relative to control
MCF7 [5] = experiment: Decrease of p53 protein expression in Homo sapiens (human) MCF7 cells at 50 uM followed by irradiated with UV after 4 hr by Western blot analysis relative to control; design: scale not given: the % may be the effect or the level left
MCF7 [6] = experiment: Decrease of p21 protein expression in Homo sapiens (human) MCF7 cells at 50 uM followed by irradiated with UV after 4 hr by Western blot analysis relative to control; design: scale not given: the % may be the effect or the level left
MCF7 [7] = experiment: Inhibition of residual DNA repair ability in Homo sapiens (human) MCF7 cells assessed as plaque forming unit at 50 uM followed by irradiated with 200 Jm'-2 of UV after 24 hr by host cell reactivation assay relative to control
MCF7 [8] = experiment: Increase of benzo[alpha]pyrene-DNA adduct formation in Homo sapiens (human) MCF7 cells at 100 uM treated for 24 hr before benzo[alpha]pyrene addition measured after 24 hr by 32P-postlabeling technique relative to control

SMILES	%PFU (MCF7 [1]) [%]	%PFU (MCF7 [2]) [%]	Activity (MCF7 [3]) [%]	fold change (FC) (MCF7 [4])	Activity (MCF7 [5]) [%]	Activity (MCF7 [6]) [%]	%PFU (MCF7 [7]) [%]	fold change (FC) (MCF7 [8])	Activity (MCF7 [4])
O[C@]12C=C(c3nccc4c3[nH]c3ccccc34)[C@@H]3CCN(CCCC/C=C\CC1)C[C@@]31C[C@@H]3/C=C\CCCCN3[C@H]12 [MANZAMINE A]	46	15	89	2	63	80	9		
CC1=C2CC/C(C)=C/CC[C@]3(C)O[C@H]3CC/C(C)=C/[C@@H]2OC1=O [SARCOPHINE]	69	38	96		90	120	24	2	inactive
